Data reported in paper PMC9959553, “Promising Antifungal Molecules against Mucormycosis Agents Identified from Pandemic Response Box®: In Vitro and In Silico Analyses” (Journal of Fungi, 2023).
Converted amounts (≈) assume the structure as drawn. Where two headings read alike, the source gives them in different places. Values belong to the molecule of their own block, whether it stands above or below them.

Legend:
R. oryzae [1] = assay: Antifungal susceptibility testing (broth microdilution, MIC and MFC); format: cell-based, Rhizopus oryzae; conditions: for MIC50 / MFC: Rhizopus arrhizus, 48 h; for MIC50: lowest concentration that inhibits 50% of fungal growth; for MFC: subculture in drug-free medium
Protocol: (§1) The susceptibility of the Rhizopus species to MMV396785 (alexidine), MMV1580844, MMV642550 and MMV019724 was determined using the broth microdilution method, according to EUCAST protocols, with modifications. Posaconazole and amphotericin B were also used as reference antifungal drugs because they are commonly used for the treatment of mucormycosis. […] A standardized suspension of conidia (2 × 10^5/mL) was added to the wells and incubated for 48 h at 37 °C, in a 5% CO2 atmosphere. Fungal growth was analyzed via spectrophotometry readings at 600 nm and cell viability was assessed using the XTT reduction assay. Minimum inhibitory concentration (MIC) of each compound was defined as the lowest concentration that inhibits 50% of fungal growth, because these fungi are highly resistant to antifungal drugs and a reduction in half of their growth is relevant. […] MFC values were defined as the lowest drug concentration able to arrest fungal growth.

[2] = cited from earlier work
R. oryzae UCP1295 [3] = assay: Antifungal drug synergy assay, checkerboard method (FICI); format: cell-based, Rhizopus oryzae; conditions: Rhizopus arrhizus, UCP1295, 48 h; drug alone; read-out: MIC50 Alone
Protocol: (§2) Synergistic interactions were evaluated using the checkerboard method according to EUCAST guidelines (EUCAST 2008). R. oryzae conidia (2 × 10^5/mL) were grown in 96-well plates containing supplemented RPMI in the presence of the following selected compounds: […] An inhibition of at least 50% was defined as the cut-off for minimum inhibitory concentration (MIC). Interactions were determined by the fractional inhibitory concentration index (FICI), which was calculated using the following formula: (MIC combined/MIC drug A alone) + (MIC combined/MIC drug B alone). […] The Bliss independence model calculation was performed according to […] colleagues and Zhao and colleagues. The following formula was used to assess drug interaction: […] The results were classified as follows: synergistic effect when Eobs > Eexp; indifference when Eobs = Eexp; antagonistic effect when Eobs < Eexp.

R. microsporus = assay: Antifungal susceptibility testing (broth microdilution, MIC and MFC); format: cell-based, Rhizopus microsporus var. microsporus; conditions: for MIC50 / MFC: Rhizopus microsporus, 48 h; for MIC50: lowest concentration that inhibits 50% of fungal growth; for MFC: subculture in drug-free medium
Protocol: as §1

R. oryzae [4] = assay: Antifungal drug synergy assay, Bliss independence model; format: cell-based, Rhizopus oryzae; design: key to Interaction: S, synergistic interaction; A, antagonist interaction; Efficacy of Combined Drugs, E obs / Efficacy of Combined Drugs, E exp: concentration or dose not given beside the values; conditions: for Efficacy of Drugs Alone (% of Inhibition), MIC50: at MIC50; for Efficacy of Drugs Alone (% of Inhibition), ½ MIC50: at ½ MIC50; for ΔE: Eobs minus Eexp; for Efficacy of Combined Drugs, E exp: expected by Bliss calculation
Protocol: as §2

R. stolonifer = assay: Antifungal susceptibility testing (broth microdilution, MIC and MFC); format: cell-based, Rhizopus stolonifer; conditions: for MIC50 / MFC: Rhizopus stolonifer, 48 h; for MIC50: lowest concentration that inhibits 50% of fungal growth; for MFC: subculture in drug-free medium
Protocol: as §1

[5] = system: R. oryzae, R. microsporus and R. stolonifer; assay: Antifungal susceptibility testing, values stated over the three species; format: cell-based; conditions: over the three Rhizopus species
Protocol: as §1

R. oryzae UCP1295 [6] = assay: Screening of the Pandemic Response Box library at 5 µM; format: cell-based, Rhizopus oryzae; conditions: for inhibition at 5 µM: Rhizopus arrhizus, UCP1295, 48 h; for Viability Inhibition (XTT): XTT reduction; for % of growth inhibition, Mean: 48 h
Outline: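 Compounds at 5 μM in RPMI 1640 with 2% glucose and MOPS (0.165 mol/L, pH 7.2), with conidia at 2 × 10^5/mL, incubated 48 h at 37 °C in 5% CO2. Growth read by OD at 600 nm; hits defined as ≥60% inhibition. Posaconazole (5 μM) and 1% DMSO as controls.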

[7] = system: R. microsporus preformed biofilm; assay: Preformed biofilm assay; format: cell-based, Rhizopus microsporus; conditions: R. microsporus, based on biofilm viability parameter
Protocol: (§3) For the preformed biofilm assay, cells were cultured as described above in the absence of the compounds. […] An additional incubation of 24 h at 37 °C was performed to evaluate the anti-biofilm activity. Evaluation of both biofilm formation and preformed biofilms was performed using three parameters as previously described. Crystal violet, safranin and XTT assays were used to analyze the overall biomass, extracellular matrix and metabolic activity, respectively.

[8] = Cytotoxicity assay (neutral red); format: cell-based, murine; conditions: mouse, RAW 264.7 macrophage cells
Protocol: (§4) Cytotoxicity of alexidine, MMV1580844, MMV642550 and MMV019724 was performed using three cell lineages: RAW 264.7, a murine macrophage culture; A549, adenocarcinomic human alveolar basal epithelial cells; and HaCaT, a spontaneously transformed aneuploid immortal keratinocyte cell line from adult human skin. Cells were grown in DMEM (Dulbecco’s Modified Eagle’s Medium, Sigma-Aldrich, MO, USA), supplemented with 10% fetal bovine serum and incubated for 48 h at 37 °C with 5% CO2 in the presence of serially diluted concentrations (0.3–50 μM) of each compound. Cell viability was measured using the neutral red (NR) assay and quantified using a spectrophotometer at 595 nm (SpectraMax® i3x, Molecular Devices®, San José, CA, USA).

[9] = Cytotoxicity assay (neutral red); format: cell-based; conditions: human
Protocol: as §4

[10] = system: R. stolonifer preformed biofilm; assay: Preformed biofilm assay; format: cell-based, Rhizopus stolonifer; conditions: R. stolonifer, based on biofilm viability parameter
Protocol: as §3

R. oryzae cells = assay: Analysis of fungal cell alterations with fluorescent staining; format: cell-based, Rhizopus oryzae; conditions: ½× MIC50, 48 h
Protocol: Alterations of R. oryzae cells caused by alexidine, MMV1580844, MMV642550 and MMV019724 were analyzed using fluorescent staining. Chitin, nucleic acid, oxidative stress, mitochondrial membrane potential and neutral lipid content were evaluated using calcofluor white (Sigma-Aldrich, MO, USA), Sytox Blue (ThermoFisher, Waltham, MA, USA), 2′,7′–dichlorofluorescein diacetate (DCFH-DA) (Sigma-Aldrich, MO, USA), JC-1 probe (ThermoFisher, Waltham, MA, USA) and Nile Red (Sigma-Aldrich, MO, USA), respectively. […] Cells were stained with 25 μg/mL of calcofluor white, 20 μM of Sytox Blue, 50 μg/mL of DCFH-DA, 10 μg/mL of JC-1 or 20 μg/mL of Nile Red, all of them for 1 h at 37 °C in the dark. Samples were washed three times to remove residual dye and suspended in PBS. Fluorescence intensity was measured using the SpectraMax 340 microplate reader (Molecular Devices, San José, CA, USA) under the following conditions: calcofluor white at 350 nm (excitation) and 432 nm (emission); Sytox Blue at 444 nm (excitation) and 480 nm (emission); DCFH-DA at 492 nm (excitation) and 517 nm (emission); JC-1 at 475 nm (excitation) and 529 nm (green fluorescence) or 590 nm (red fluorescence) for the calculation of the red/green fluorescence intensity; and Nile Red at 550 nm (excitation) and 635 nm (emission).

[11] = Table S1, mean of the four values, read-out: % of growth inhibition, Mean
[12] = optical density 600 nm, read-out: Growth Inhibition
[13] = Table S1, mean of the four values

- MIC50 (R. oryzae [1]): > 20 µM
- MIC (R. oryzae UCP1295 [3]): 40 µM
- MIC50 (R. microsporus): > 20 µM
- Efficacy of Drugs Alone (% of Inhibition), MIC50 (R. oryzae [4]): 79.6 % of Inhibition
- Efficacy of Drugs Alone (% of Inhibition), ½ MIC50 (R. oryzae [4]): 21.4 % of Inhibition
- MIC50 (R. stolonifer): > 20 µM
- MIC [5]: > 20 µM
Compound: C[C@@H]1[C@H](O)[C@@H](C)/C=C/C=C/C=C/C=C/C=C/C=C/C=C/[C@H](O[C@@H]2O[C@H](C)[C@@H](O)[C@H](N)[C@@H]2O)C[C@@H]2O[C@](O)(C[C@@H](O)C[C@@H](O)[C@H](O)CC[C@@H](O)C[C@@H](O)CC(=O)O[C@H]1C)C[C@H](O)[C@H]2C(=O)O [Amphotericin B, reference compound]
- MFC (R. oryzae [1]): > 20 µM
- oral bioavailability [2]: negligible
- MFC (R. microsporus): > 20 µM
- MFC (R. stolonifer): > 20 µM
- MFC [5]: > 20 µM

Compound: CC[C@@H]([C@H](C)O)n1ncn(-c2ccc(N3CCN(c4ccc(OC[C@@H]5CO[C@@](Cn6cncn6)(c6ccc(F)cc6F)C5)cc4)CC3)cc2)c1=O [Posaconazole, reference compound]
- MIC50 (R. oryzae [1]): 1.25 µM (≈ 0.876 µg/mL)
- MFC (R. oryzae [1]): > 20 µM
- MIC (R. oryzae UCP1295 [3]): 1.25 µM
- MIC50 (R. microsporus): 2.5 µM (≈ 1.75 µg/mL)
- MFC (R. microsporus): > 20 µM
- inhibition at 5 µM (R. oryzae UCP1295 [6]; [11]): 56.3%
- inhibition at 5 µM (R. oryzae UCP1295 [6]; [12]): 56%
- Viability Inhibition (XTT) (R. oryzae UCP1295 [6]): 73%
- Efficacy of Drugs Alone (% of Inhibition), MIC50 (R. oryzae [4]): 63.4 % of Inhibition
- Efficacy of Drugs Alone (% of Inhibition), ½ MIC50 (R. oryzae [4]): 6.5 % of Inhibition
- MIC50 (R. stolonifer): 0.63 µM (≈ 0.441 µg/mL)
- MFC (R. stolonifer): > 20 µM
- MFC [5]: > 20 µM
- MIC [5]: 0.63 to 2.5 µM (≈ 0.441 to 1.75 µg/mL)

Compound: O=C1NC(=S)N/C1=C\c1cc(Br)cc(Br)c1O [MMV1578569]
- % of growth inhibition, Mean (R. oryzae UCP1295 [6]; [13]): -14.5%

Compound: CCCCc1ccc(-c2cc(C(=O)O)cc(-c3ccc(Cl)cc3)n2)cc1 [MMV1580852]
- % of growth inhibition, Mean (R. oryzae UCP1295 [6]; [13]): -12.9%

Compound: C/C(=N\NC(=O)C1CC1c1ccccc1)c1ccc(NC(=O)c2ccco2)cc1 (stereo not drawn) [MMV1580487]
- % of growth inhibition, Mean (R. oryzae UCP1295 [6]; [13]): 0.3%

- MIC50 (R. oryzae [1]): 2.5 µM (≈ 0.874 µg/mL)
- MIC (R. oryzae UCP1295 [3]): 2.5 µM
- MIC50 (R. microsporus): 5 µM (≈ 1.75 µg/mL)
- Efficacy of Drugs Alone (% of Inhibition), MIC50 (R. oryzae [4]): 62.9 % of Inhibition
- Efficacy of Drugs Alone (% of Inhibition), ½ MIC50 (R. oryzae [4]): 42.3 % of Inhibition
- MIC50 (R. stolonifer): 2.5 µM (≈ 0.874 µg/mL)
- MIC [5]: 2.5 to 5 µM (≈ 0.874 to 1.75 µg/mL)
Compound: Oc1cccc(C(Nc2nccs2)c2ccc3cccnc3c2O)c1 (stereo not drawn) [MMV642550]
- Selectivity Index (SI), Planktonic Cell (R. oryzae [1]; R. oryzae, from CC50 and MIC50 of planktonic cells): >20
- MFC (R. oryzae [1]): > 20 µM
- Selectivity Index (SI), Preformed Biofilm [7]: >5
- Selectivity Index (SI), Planktonic Cell (R. microsporus; R. microsporus, from CC50 and MIC50 of planktonic cells): >10
- MFC (R. microsporus): > 20 µM
- inhibition at 5 µM (R. oryzae UCP1295 [6]; [11]): 59.8%
- inhibition at 5 µM (R. oryzae UCP1295 [6]; [12]): 60%
- Viability Inhibition (XTT) (R. oryzae UCP1295 [6]): 59%
- Efficacy of Combined Drugs, E obs (R. oryzae [4]; combined with Amphotericin B): 78.1%
- Interaction (R. oryzae [4]; combined with Amphotericin B): S
- ΔE (R. oryzae [4]; combined with Amphotericin B): 23.5%
- Efficacy of Combined Drugs, E exp (R. oryzae [4]; combined with Amphotericin B): 54.6%
- Efficacy of Combined Drugs, E obs (R. oryzae [4]; combined with Posaconazole): 60.0%
- Interaction (R. oryzae [4]; combined with Posaconazole): A
- ΔE (R. oryzae [4]; combined with Posaconazole): −26.5%
- Efficacy of Combined Drugs, E exp (R. oryzae [4]; combined with Posaconazole): 86.5%
- CC50 at 48 h [8]: > 50 µM
- CC50 at 48 h ([9]; A549 alveolar basal epithelial cells, A549, 48 h): > 50 µM
- CC50 at 48 h ([9]; HaCaT keratinocyte cells): > 50 µM
- Selectivity Index (SI), Planktonic Cell (R. stolonifer; R. stolonifer, from CC50 and MIC50 of planktonic cells): >20
- MFC (R. stolonifer): > 20 µM
- Selectivity Index (SI), Preformed Biofilm [10]: >10
- chitin content (calcofluor white) (R. oryzae cells): decreased
- neutral lipids (Nile Red) (R. oryzae cells): decreased

Compound: CCc1nc(N)nc(N)c1C#CCc1ccccc1 [MMV1581549]
- % of growth inhibition, Mean (R. oryzae UCP1295 [6]; [13]): 18.7%

Compound: COc1cc(NCc2ccc3nc(N)nc(N)c3c2C)cc(OC)c1OC [MMV1580173]
- % of growth inhibition, Mean (R. oryzae UCP1295 [6]; [13]): 46.8%

Compound: O=C(O)c1cc(-c2ccccc2)nc2ccccc12 [MMV018362]
- % of growth inhibition, Mean (R. oryzae UCP1295 [6]; [13]): -11.4%

Compound: CC(C)(C)c1ccc(OCCn2nc(C(=O)O)c3ccccc3c2=O)cc1 [MMV1634387]
- % of growth inhibition, Mean (R. oryzae UCP1295 [6]; [13]): -15.4%

Compound: CN(C)CCCOc1ccc(-c2ccc3ncc4c(c3c2)n(C2CCOCC2)c(=O)n4C)cn1 [MMV1580483]
- % of growth inhibition, Mean (R. oryzae UCP1295 [6]; [13]): -5.4%

Compound: C[C@H]1CC[C@@]2(O)C(C)(C)[C@@H]3CC[C@@]2(C)[C@H]1C3 [MMV1578556]
- % of growth inhibition, Mean (R. oryzae UCP1295 [6]; [13]): -4.8%
